Assay: Standing test of aqueous solution for crystalline deposit
Format: physicochemical

## CN(C)CC(=O)O [N,N-dimethylglycine]
Aqueous 60% by mass solution, left standing at 0° C. for 10 days
  crystalline deposit on standing: no crystalline deposit was observed

## CN(C)CC(=O)[O-].[Na+] [N,N-dimethylglycine sodium salt]
Aqueous 30% by mass solution, left standing at room temperature
  crystalline deposit on standing: crystalline N,N-dimethylglycine sodium salt deposited

From US7056450B2, “Highly concentrated aqueous solutions of N,N-dialkyl-glycines and process for preparation thereof” (Showa Denko K.K., priority 2001, dated 2006)
